Converted amounts (≈) assume the structure as drawn.
Key:
[1] = target: Protein A purified IgG (rabbit antibodies to diacyl hydrazines); test: Indirect immunoassay (inhibition of purified IgG binding to RH2703-BSA coating antigen); details: indirect assay; for IC50: RH2703-BSA coating antigen, absorbance at 410 nm; for Cross reactivity: IC50 of RH5992 / IC50 of analog x 100
Description: (§1) As used herein the term "IC50 " is defined as the concentration of the inhibitor required to reduce the absorbance to one-half the absorbance measured when no inhibitor was present. This determination is accomplished by plotting the percent (%) activity remaining versus the concentration of the inhibitor where the percent (%) activity remaining is given by:
(§2) % activity=(Ao -Ai /Ao)×100
(§3) where Ao is the measured absorbance when no inhibitor is present and Ai is the measured absorbance at the i^th concentration of inhibitor. The percent inhibition is then given by the relationship 100-(% activity).
The percent cross reactivity was derived by the equation: […]
where IC50,5992 is the IC50 concentration for RH5992 as determined above and IC50,analog is the IC50 concentration of the analog, i.e., RH2703, RH2651, and RH0345.
(§4) Sensitivity in ng is calculated from the concentration of the inhibitor determined from regression analysis of the standard deviations of the replicate analyses of the standard concentrations as described in the equation: […]
(§5) where S is the sensitivity in ng, Yint is the Y-intercept of the regression line from the standard deviations of the replicate analyses in absorbance units, m is the slope of the regression line in absorbance units per ng/ml and V is the volume of sample applied to the microtiter plate in ml.
RH2703-BSA was used as the coating antigen. The concentration required to give a readable response (0.3-0.5 absorbance units @ 410 nm) in the presence of the minimum quantity of antigen (RH2703) was optimized in the presence of a constant amount of protein A purified IgG (10 μl of a 20 μg/ml solution, 100 ng/well) by a checkerboard type assay (see Voller et al, Bull of World Health Organization, 53, 35 (1976)). The concentration of the Protein A purified IgG had been previously optimized in the presence of a constant amount of coating antigen (RH2703-BSA, 100 μl of a 10 μg/ml solution) to give a readable response to the minimum amount of RH5992.
Antibody concentration was optimized to be approximately 20 μg/ml (100 ng per micro well) and the coating antigen was optimized to be 25 ng/ml or 2.5 ng per micro well. When converted to a molar basis and assuming a hapten/protein binding ratio of 55, the hapten is in a three-fold molar excess of the IgG added.
The percent inhibition for RH2703, RH2651, RH5992, RH0345 and RH2485 were determined to the protein IgG in the presence of the optimized concentration of RH2703-BSA coating antigen. Each test substance was assayed at seven concentrations ranging from no test substance 0 ng/ml to 1000 ng/ml. The assay at each concentration was replicated seven times. Antigen negative and antibody negative wells provided negative controls while KLH/anti-KLH wells were used as positive controls.
Serial dilutions of the test substance stock solutions were made with coating buffer containing 0.1% TWEEN 20 polysorbate to give 1000 ng/ml, 100 ng/ml, 10 ng/ml, 1 ng/ml, 0.1 ng/ml, and 0.01 ng/ml assay concentrations. Coating buffer w/0.1% TWEEN 20 polysorbate was used as the 0 ng/ml assay concentration. The test substance assay concentrations (190 μl each) were incubated with 10 μl of the protein A IgG ([…]) for one hour at room temperature. After the incubation period, 100 μl of the test substance-IgG mixture was transferred to the appropriate microtiter well. The microtiter wells had been previously coated with the optimized concentration of RH2703-BSA and the excess protein binding sites were blocked with 0.3 ml of a 1% BSA solution in coating buffer. The plates were incubated for an additional hour at room temperature.
After the second incubation the plates were washed and goat, anti-rabbit immunoglobulin conjugated to alkaline phosphatase (0.6 mg reconstituted with 1 ml 50% glycerol and subsequently diluted with 1:5000 with blocking solution Pierce Chemical Co) was added. The plates were incubated, washed and PNPP substrate added as described in Example 5. […]

[2] = tested on: ^2651 IgG (coating antibody); test: Direct assay (competition with 2651-HRP for immobilized ^2651 IgG coating antibody); format: binding, rabbit; details: for IC50: 2651-HRP label, absorbance at 450 nm; for Cross reactivity, RH2651: relative to RH2651; for Cross reactivity, RH5992: relative to RH5992
Description: as §1, §2, §3, §4, §5
A microplate was coated with ^2651 IgG. Starting with column 1, 100 μl of 10 μg/ml ^2651 IgG were added to each well and 1:2 serial dilutions made across the plate. The plate was sealed and stored at 4° C. until ready to use. After emptying, the plate was washed with 0.01% Tween 20 in PBS and blocked with 1% BSA in PBS for about 1 hour at room temperature. After blocking, the plate was emptied and 150 μl PBS added to each well. Then 50 μl of 2651-HRP dilutions were added down the plate starting with 10 μg/ml and continuing with 1:2 dilutions down the plate. After a 1 hour room temperature incubation, the plate was washed as before and 150 μl 1-Step® Slow-TMB (peroxidase substrate from Pierce Chemical Co.) was added to each well. After one hour development, 150 μl of 1N H2 SO4 was added to stop the reaction and the absorbance of each well measured at 450 nm with the Dynatech MR5000 Microplate Reader. Controls included wells with no coating antibody and wells in which no 2651-HRP were added. A ^2651 IgG coating antibody concentration of 0.625 μg/ml and a 2561-HRP concentration of 1.25 μg/ml were determined to be the optimum concentration for use with 1-Step® Slow-TMB substrate.
The wells of a microplate were coated with 100 μl each of 0.625 μg/ml ^2651 IgG. One row was left uncoated as a control. The plate was kept at 4° C. overnight. The following day the plate was washed with 0.01% Tween 20 polysorbate in PBS and blocked with 1% BSA in PBS for at least 30 minutes. Standard solutions of RH5992, RH2651, RH2703, and RH2485 were made from 1 mg/ml stock solutions. Standard solutions of RH0345 were prepared from a 0.1 ng/ml, 0.5 ng/ml, 1 ng/ml, 5 ng/ml, 10 ng/ml, 50 ng/ml, and 100 ng/ml. After the blocking lo solution was emptied, 150 μl of the standards were added to the appropriate wells. For the zero control 150 μl of PBS was added. After a 45 minute incubation at room temperature, 50 μl of 1.25 μg/ml 2651-HRP were added to each well and the plate agitated to mix the contents. […] After incubation for 45 minutes at room temperature, the plate was washed as before and 150 μl 2651-HRP was added to each well and the plate agitated to mix the contents. […] After incubation for 45 minutes at room temperature, the plate was washed as before and 150 μl Step 1® Slow TMB added to each well. After 2 hours at room temperature, 150 μl 1N H2 SO4 was added to each well and the absorbance read at 450 nm with the Dynatech MR5000 Microplate Reader.
FIG. 16a illustrates a typical curve generated from the assay. The linear portion of the curve is visualized between 0.01 ng/ml and 10 ng/ml. A typical standard curve in the linear range of the assay is illustrated by FIG. 16b using inverse absorbances to generate a positive slope. The limit of detection was calculated as 0.096 ng/ml and the sensitivity calculated as 0.005 ng for RH5992.

Structure (SMILES) | IC50 [1] | Cross reactivity [1] | IC50 [2] | Cross reactivity, RH2651 [2] | Cross reactivity, RH5992 [2]
CC(C)(C)N(NC(=O)c1ccc(Cl)cc1)C(=O)c1ccccc1 [RH0345] | 6.5 ng/mL | 9% | 16.94 ng/mL (≈ 0.0512 µM) | 6.9% | 21.5%
COc1cccc(C(=O)NN(C(=O)c2cc(C)cc(C)c2)C(C)(C)C)c1C [RH2485] | 0.05 ng/mL | – | 4.64 ng/mL (≈ 0.0126 µM) | 25% | 78.4%
Cc1cc(C)cc(C(=O)N(NC(=O)c2ccc(C(=O)O)cc2)C(C)(C)C)c1 [RH2651] | 1.59 ng/mL | 38% | 1.17 ng/mL (≈ 0.00318 µM) | 100% | 311%
Cc1cc(C)cc(C(=O)N(NC(=O)c2ccc(CC(=O)O)cc2)C(C)(C)C)c1 [RH2703] | 1.13 ng/mL | 54% | 2.10 ng/mL (≈ 0.00549 µM) | 56% | 173%
CCc1ccc(C(=O)NN(C(=O)c2cc(C)cc(C)c2)C(C)(C)C)cc1 [RH5992] | 0.61 ng/mL | 100% | 3.64 ng/mL (≈ 0.0103 µM) | 32% | 100%

Source: US5948406A, “Immunogens, antibodies formed therefrom, and coating antigens useful in a diacylhydrazine immunoassay method” (Rohm and Haas Company, priority 1997, dated 1999)
